From BigSolDB 2.1

CN1CCC(N(Cc2cccs2)c2ccccc2)CC1
solubility (mole fraction)
Settings | 278.15 K | 283.15 K | 288.15 K | 293.15 K | 298.15 K | 303.15 K | 308.15 K | 313.15 K | 318.15 K | 323.15 K
in DMF | 0.00706 | 0.00795 | 0.00881 | 0.00971 | 0.0108 | 0.0119 | 0.0132 | 0.0143 | 0.0158 | 0.0175
in water | 2.63e-05 | 2.84e-05 | 3.06e-05 | 3.36e-05 | 3.72e-05 | 4.16e-05 | 4.62e-05 | 5.09e-05 | 5.66e-05 | 6.3e-05
